Results on 2 compounds are retold here after patent US20240366624A1, “METHODS AND COMPOSITIONS FOR TREATING THROMBOTIC DISEASE” (Washington University, priority 2023, published 2024).

For one assay, the system named is human platelets. As to the kind of experiment: Ca2+ mobilization (FLIPR), human platelets. The class given is cell-based. As to conditions: thrombin or A23187. As for the experimental part: Ca^2+ mobilization was measured as described previously. WT control and Ero1α-null platelets (1×10^8/mL) were suspended in HEPES-Tyrode buffer, pH 7.4. Cells were incubated with a Ca^2+ dye (FLIPR Ca^2+5 assay kit; Molecular Devices) for 30 minutes at 37° C. in the dark, followed by stimulation with thrombin (0.1 U/mL), A23187 (2 μM) or thapsigargin (10-20 μM). After measuring Ca^2+ release, 1 mM CaCl2) was immediately added to assess Ca^2+ influx. In other experiments, Ca^2+ dye-labeled human and WT mouse platelets were incubated with a vehicle or an inhibitor for 10 minutes at 37° C. Cytosolic Ca^2+ levels were measured using a FlexStation3 microplate reader with an excitation wavelength of 485 nm and an emission wavelength of 525 nm. Ca^2+ mobilization was quantified by the area under the curve and expressed as a relative fluorescence unit.

The next assay has as its system WT (C57BL/6) mice. Put plainly: Transient middle cerebral artery occlusion (tMCAO) ischemic stroke model. The assay is classed as in vivo, mouse. As to conditions: single iv 5 μg/g BW after tMCAO, 23 hours later. As for the experimental part:
FIG. 19(A-Q) is an exemplary embodiment of B12-5 having an antithrombotic effect without prolonging tail bleeding times in mice in accordance with the present disclosure. FIG. 19(A-C): Ex vivo effects of B12-5. Wild type (WT; C57BL/6) mice were treated with intravenous injection of vehicle (20% polyethylene glycol [PEG]+3% dimethyl sulfoxide [DMSO]) or B12-5 (5 μg/g body weight [BW]). One hour later, blood was drawn, followed by isolating platelets. P-selectin exposure (FIG. 19A) and αIIbβ3 integrin activation (FIG. 19B) were assessed in flow cytometry. FIG. 19C: Platelet aggregation was measured after treatment with 0.025 U/mL thrombin. The data represent the mean±SD (n=4). FIG. 19D: The plasma levels of B12-5 were analyzed by liquid chromatography-tandem mass spectrometry (LC-MS/MS) after intravenous injection of the compound (5 μg/g BW) into WT mice and quantified by comparison with a standard curve of B12-5 (mean±SD, n=3). FIG. 19E and FIG. 19F: After laser-induced cremaster arteriolar injury, intravital microscopy was conducted with WT mice pretreated with intravenous injection of saline, eptifibatide (5 μg/g BW), vehicle, or B12-5 (5 μg/g BW). The median integrated fluorescence intensities of anti-CD42c (F platelet) and anti-fibrin (F fibrin) antibodies (n=37-42 arterioles in 6 mice per group). Quantification of the antibody signal at a different time point after laser injury. FIG. 19G: Comparison of B12-5 (5 μg/g BW) with eptifibatide (5 μg/g BW) and their respective controls in inhibiting FeCl3-induced carotid artery thrombosis in WT mice. FIG. 19H and FIG. 19I: WT mice were treated with intravenous injection of vehicle control, eptifibatide (5 μg/g BW), or B12-5 (5 μg/g BW). Thirty minutes later, tail bleeding times and Hb contents were measured after amputation of the tail tip. Bars represent the median value (FIG. 19(E-1)). FIG. 19J and FIG. 19M: WT control and Ero1α conditional knockout (CKO) and knockout (KO) mice were subjected to transient middle cerebral artery occlusion (tMCAO). Twenty-three hours later, neurological deficits were assessed by the Bederson score and grip test, and infarct volume was measured as described in Methods. FIG. 19N through FIG. 19Q: WT mice were subjected to tMCAO and then treated with saline, vehicle, or B12-5 (5 μg/g BW). Twenty-three hours later, the neurological deficit and infarct volume were measured as described above. FIG. 19K and FIG. 19O: The data represent the mean±SD (n=7-8). FIG. 19L, FIG. 19M, FIG. 19P, and FIG. 19Q: The bar indicates the median with interquartile range. P values determined by unpaired Student t test (FIG. 19(A-C), FIG. 19K, and FIG. 19O) or Mann-Whitney U test (FIG. 19(E-1), FIG. 19L, FIG. 19M, FIG. 19P, and FIG. 19Q). […]

The target in assay [1] is T1, MAO-A (monoamine oxidase A) (Homo sapiens, UniProt P21397).
T1 sequence (P21397 1-527): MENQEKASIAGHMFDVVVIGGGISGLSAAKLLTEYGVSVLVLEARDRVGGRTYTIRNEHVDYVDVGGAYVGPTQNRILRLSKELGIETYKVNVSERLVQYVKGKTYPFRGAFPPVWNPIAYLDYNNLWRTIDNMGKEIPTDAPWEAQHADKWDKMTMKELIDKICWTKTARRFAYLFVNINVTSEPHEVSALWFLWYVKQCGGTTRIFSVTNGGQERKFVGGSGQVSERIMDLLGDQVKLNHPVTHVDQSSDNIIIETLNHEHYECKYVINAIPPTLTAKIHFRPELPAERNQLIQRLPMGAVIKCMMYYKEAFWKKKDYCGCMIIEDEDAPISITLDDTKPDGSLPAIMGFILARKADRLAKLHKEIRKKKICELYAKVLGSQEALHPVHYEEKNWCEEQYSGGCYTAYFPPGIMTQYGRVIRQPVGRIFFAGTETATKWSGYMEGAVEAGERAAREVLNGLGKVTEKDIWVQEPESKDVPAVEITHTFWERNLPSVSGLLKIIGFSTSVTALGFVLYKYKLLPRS
As to conditions: from studies; cited from earlier work.

A further assay has as its target T2, MAO-B (Homo sapiens, UniProt P27338).
T2 sequence (P27338 1-520): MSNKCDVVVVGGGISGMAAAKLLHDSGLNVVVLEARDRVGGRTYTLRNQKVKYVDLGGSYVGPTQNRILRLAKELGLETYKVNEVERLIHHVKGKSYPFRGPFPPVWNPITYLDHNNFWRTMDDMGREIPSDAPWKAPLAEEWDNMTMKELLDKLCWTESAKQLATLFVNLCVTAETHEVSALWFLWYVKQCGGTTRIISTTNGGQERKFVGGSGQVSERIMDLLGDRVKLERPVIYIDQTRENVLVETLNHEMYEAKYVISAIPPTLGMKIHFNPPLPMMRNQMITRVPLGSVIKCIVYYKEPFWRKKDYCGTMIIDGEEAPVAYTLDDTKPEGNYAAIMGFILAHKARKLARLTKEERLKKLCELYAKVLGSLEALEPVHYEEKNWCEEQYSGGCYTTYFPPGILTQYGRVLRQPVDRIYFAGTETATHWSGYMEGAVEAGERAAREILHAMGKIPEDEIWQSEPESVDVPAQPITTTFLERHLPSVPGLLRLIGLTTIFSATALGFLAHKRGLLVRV
As to conditions: from studies; cited from earlier work.

pIC50: −log10 of the molar value. Entries after “also recorded” stand apart in the source; their conditions may differ.

In the case of `O=C(CSc1nc(O)cc(O)n1)N1c2ccccc2Sc2ccccc21` [B12-5], the “Ca2+ release and influx” value with human platelets is “dose dependently inhibited”. Further, in the assay on WT (C57BL/6) mice, the infarct volume entry was “significantly reduced” and the “neurological deficits (Bederson score, grip test)” value is “ameliorated”. For the same compound, in the assay with WT (C57BL/6) mice (listed as B112-5), the infarct volume result is reported as “significantly reduces; also recorded: reduced” and the “neurological deficits (Bederson score, grip test)” value is listed as “improves”.
Regarding `O=C(O)c1cc(N2N=C(C(F)(F)F)/C(=C/c3ccc(-c4ccccc4)o3)C2=O)ccc1Cl` [EN460], the pIC50 in assay [1] is 5.10; on MAO-B it was 4.51.
